The values that follow come from US20260240865A1, “HARNESSING IKZF:BETA-CATENIN COMPLEXES IN THE TREATMENT OF LYMPHOCYTE ASSOCIATED DISEASES OR CONDITIONS” (Yale University, priority 2022, published 2026).

For series [1] the following is noted: cited from earlier work.
For series [2], the system named is B-lymphoid leukemia and lymphoma cells. Put plainly: Cell viability assay (Cell Titer Glo 2.0) with GSK3β inhibitors. It counts as cell-based, human. The procedure: Forty thousand patient-derived pre-B ALL cells or twenty thousand leukemia/lymphoma cell lines or ten thousand colon/lung cancer cells were seed in a volume of 80 μl in complete growth medium on 96-well plate. GSK3β3 inhibitors were added at the indicated concentration in a total volume of 100 μl. After treatment for 3 days, Cell Titer Glo 2.0 assays (Promega) were performed according to the manufacturer's instructions. Relative viability was calculated by measuring the luminescence value and normalizing it to baseline values of untreated cells.
(§1) Data are shown as mean±s.d. unless stated. Statistical analysis was performed by GraphPad Prism 7 (GraphPad Software Inc.) using unpaired two-tailed t test or log-rank test as indicated in figure legends. Significance was considered at P<0.05. Kaplan-Meier survival analysis was used to estimate OS with GraphPad Prism 7. The investigators were not blinded to allocation during experiments and outcome assessment. Experiments were repeated to ensure reproducibility of the observations.
For orientation: ATP-based viability assays read luminescence as a measure of living cells.

Series [3] has as its system β-catenin. As to the kind of experiment: Western blot of colonies from MDS-derived CD34+ GFP+ progenitor cells. It counts as cell-based, human. The conditions noted are these: large colonies after 12 days. The procedure:
(§2) Cells were washed twice with ice-cold PBS and were lysed in CelLytic buffer (Sigma-Aldrich) supplemented with 1% protease inhibitor cocktail (Roche Diagnostics), 1% phosphatase inhibitor cocktail (EMD Millipore) and 1 mM PMSF (CST) on ice. 10-20 μg of cell lysates were separated on precast gels (Bio-Rad) and transferred on nitrocellulose membranes (Bio-Rad). After blocking for an hour in TBS-T with 2% BSA, membranes were probed with the appropriate primary antibodies listed in Table 6. Membranes were incubated with alkaline-phosphatase conjugated secondary antibodies (Invitrogen) and analyzed with Chemi Doc™ MP Imaging System (Bio-Rad). For fractionation experiment Nuclear and Cytoplasmic Extraction Reagent (Thermo Scientific) was used according to manufacturer's instructions.
For colony forming assays, 10,000 mouse BCR-ABL1 or NRAS^G12D were grown on MethoCult medium (M3231 or M3630 (with IL-7) respectively, StemCell Technologies) in 3-cm diameter dishes with an extra dish filled with water to prevent evaporation. […] For all colony forming experiments, colonies were imaged and counted using GelCount (Oxford Optronix) and 7-14 days after plating.
Non-targeted and targeted CD34^+ GFP^+ cells were stimulated in the presence of human cytokines and colony forming assays were performed. Large colonies were analyzed by Western blot after 12 days.
On the technique in general: In western blotting, separated proteins are transferred to a membrane and probed.

Series [4] has as its system autoreactive B-cells. Put plainly: Genetic mouse models for SLE and RA treated with GSK3β inhibitor. Format: in vivo. The conditions noted are these: 4 injections i.p., 20 mg/kg, once full-blown disease has developed. The source says: β-catenin activation in mouse models for SLE. As mouse models for SLE, lupus-prone B6.Sle1.Yaa mice will be studied, to be crossed on the B6Mb1^+/Crex Ctnnb1^ex3fl/fl model for B-cell-specific accumulation of β-catenin (FIG. 25). B6.Sle1.Yaa mice only require one backcross then intercross for Sle1 homozygosity, a large locus on chromosome 1 that promotes lupus susceptibility. One caveat of the B6.Sle1.Yaa model is that these are male mice, by contrast to female-dominant lupus in patients, since disease penetrance requires a second copy of Tlr7 on the Y chromosome (the Yaa allele). The B6.Sle1.Yaa faithfully replicates these outcomes as observed in other lupus-prone strains, including female predominant strains such as NZB/WF1 and MRL/1pr, or single gene models.
β-catenin activation in mouse models for RA. For collagen-induced arthritis (CIA) as a model for RA, disease is modeled on a B6 background with the B6 Mbl^+/Cre×Ctnnb1^ex3fl/fl allele using chicken type II collagen as an immunogen. […] Both models of inflammatory synovitis have been established, CIA induced in DBA1 and B6. The colonies are readily available for analyzing outcomes in these animals, including detailed analysis of B- and T-cell responses, and degree of synovitis and joint damage. […]

Series [5] relates to β-catenin and MYC protein levels in B-ALL cells. Put plainly: Western blot of β-catenin and MYC after GSK3β inhibitor treatment. Format: cell-based, human. The procedure:
as §2

Series [6] concerns refractory B-ALL PDX (LAX2). Put plainly: In vivo treatment of NSG mice bearing refractory B-ALL patient-derived xenografts. The method, then: Patient derived BCR-ABL1 ALL were labeled with firefly luciferase and selected by 25 μg ml^−1 blasticidin. 1 million PDX cells pre-treated with LY2090314 (10 μg ml^−1) or vehicle control for four hours. Cells were washed twice and then injected via the tail vein into sublethally irradiated (190 cGy) NSG mice (8-12 week-old, female). LY2090314 or vehicle control (dissolved in 5% DMSO, 45% PEG300 and PBS) were administered intraperitoneally at dose of 12.5 mg kg^−1 body weight twice every day for 20 times. The in vivo expansion and leukemia burden were monitored by luciferase bioimaging (Lago X; Accela). Briefly, D-luciferin (Promega) was dissolved in PBS and injected intraperitoneally at a dose of 2.5 mg per mouse 15 min before measuring luminescent. All mice were anesthetized by 5% isoflurane and continued during detection of light emission with 2% isoflurane introduced through a nose cone. When the mice get the signs of leukemia (hunched back, weight loss and inability to move), they were euthanized. Bone marrow and spleen were collected and flow cytometry analysis was performed to check leukemia engraftment.
as §1
For orientation: A xenograft is tissue or cells of one species grown in another, often human tumour cells in immunodeficient mice.

Series [7] relates to B-lymphoid leukemia and lymphoma cells. Put plainly: Cell viability assay (Cell Titer Glo 2.0) with GSK3β inhibitors. It counts as cell-based, human. The source holds these as a separate data set.

Entries after “also recorded” stand apart in the source; their conditions may differ.

For the compound `O=C1NC(=O)C(c2cnc3ccccn23)=C1c1cn2c3c(cc(F)cc13)CN(C(=O)N1CCCCC1)CC2` [LY2090314], in series [1] (Cmax micromolar), the “adverse effects in clinical trials” value was “lymphopenia”. In series [1] (Phase 1 and 2), the “Outcome: clinical responses” value is “No clinical responses”; the “Outcome: safety” value was “Phase 1 and 2, favorable safety”. Also, the “Outcome: MTD” value in series [1] (i.v.) is given as 80 mg. Moreover, the “safety and tolerability / PK/PD profile in clinical trials” value in series [1] (micromolar plasma concentrations (Cmax)) was “demonstrated safety and tolerability at micromolar plasma concentrations”. Moreover, the “responses in B-ALL PDX with vs without IKZF1-deletion” value in series [2] (10 patient-derived xenografts, 5 with IKZF1-deletion) was “no significant differences”. The “drug-responses in a larger panel of cell lines and PDX” value in series [2] (B-ALL, B-cell lymphoma, myeloid leukemia, colon, lung cancer, 0 up to 200 nM, 3 days) is “profound responses in B-ALL and B-cell lymphoma cells in the absence of significant effects on myeloid and epithelial tumor cells”. Moreover, in series [2] (B-lymphoid vs myeloid and epithelial cells (PDX2, BV173, LAX2 vs THP1, SW620, H82), 3 days), the “selective cell death / drug response” value was “induced cell death at low nanomolar concentrations selectively in B-lymphoid but not myeloid and epithelial cells; also recorded: B-cell selective activity at low nanomolar concentrations”. Moreover, in series [2] (FIG. 7D), the “responses in B-ALL PDX from chemotherapy-sensitive vs refractory/relapsed patients” value is reported as “did not affect responses”. For the same compound, the “sensitivity of B-ALL cells with deletion of CTNNB1” value in series [2] (human B-ALL (BV173) gCTNNB1 vs gNT clones, 3 days) is on record as “near-complete resistance”. Further, in series [3], the “β-catenin accumulation in non-targeted control colonies” value is on record as “induced accumulation of β-catenin in all 7 non-targeted control colonies”. The “disease outcome in established SLE and RA” value in series [4] was “induce disease remission”. Further, in series [5] (B-ALL (PDX2) cells, 16 hours, FIGS. 7A, 7C, 18C), the “β-catenin accumulation and MYC suppression” value is “induced massive accumulation of β-catenin in parallel with acute suppression of MYC”. Further, in series [5] (BV173, 20 nM, 16 hours), the “MYC suppression in B-ALL cells with deletion of CTNNB1” value is listed as “prevented suppression of MYC”. Also, the “β-catenin accumulation and MYC suppression in B-cell vs colon and lung cell lines” value in series [5] (pre-B cell and mature B-cell lines, colon and lung cancer cell lines, FIG. 28A) was “induced rapid accumulation of β-catenin protein and suppression of MYC in Ikaros-expressing B-cell lines but not colon and lung cell lines”. In series [6] (NSG mice with refractory B-ALL PDX, intraperitoneal, single agent vs vehicle), the “leukemia burden (bioluminescence imaging)” value is given as “substantially reduced leukemia burden”. Moreover, the overall survival result in series [6] (NSG mice with refractory B-ALL PDX, intraperitoneal, P=6.5E-05, n=9) is “significantly extended overall survival”. Besides, in series [6] (limiting doses (100-2,500 cells) of B-ALL PDX in transplant recipient mice), the leukemia-initiation potential result was “reduced the leukemia-initiation potential”. In addition, in series [6] (treated NSG mice), the “weight loss / dose-limiting toxicity” value is listed as “did not show significant weight loss or other dose-limiting toxicity”. The “IC50 in epithelial and myeloid cancer cells relative to B-ALL” value in series [7] (343 epithelial cancer cell lines (Prism Drug Repurposing Secondary Screen) vs B-ALL cell lines) amounted to 236 fold. For the same compound, the “IC50 in epithelial and myeloid cancer cells relative to B-cell lymphoma” value in series [7] (343 epithelial cancer cell lines (Prism Drug Repurposing Secondary Screen) vs B-cell lymphoma cell lines) was 92 fold.
